Results as given in article PMC10385865, “Synthesis and Anticancer Activity of Novel Dual Inhibitors of Human Protein Kinases CK2 and PIM-1” (Pharmaceutics, 2023).
pKi: −log10 of the molar value.

Assays:
human CK2α = target: T1, human CK2α (Homo sapiens, UniProt P68400); experiment: P81 filter isotopic (radiometric) kinase assay, CK2 catalytic subunit; format: biochemical; settings: substrate peptide […], Ki from IC50 by Cheng–Prusoff
T1 construct: made in house
Protocol: The obtained compounds were tested for their inhibitory activity toward human CK2α, human CK2 holoenzyme, and PIM-1 using a P81 filter isotopic assay as described previously. […] The experimental data were fitted to the sigmoidal dose–response equation, i.e., (variable slope) Y = Bottom + (Top-Bottom)/(1 + 10^((LogIC50−X)∗HillSlope), in GraphPad Prism (Prism 9, v. 9.0.1).
Inhibition of the human CK2 catalytic subunit (CK2α), CK2 holoenzyme (CK2α2β2), and PIM-1 by the newly obtained compounds was evaluated using a radiometric assay (Table 1, Figure S2). The synthetic peptide […] was used as the substrate of CK2, and peptide […] was used as the substrate of PIM-1. The values of the inhibition constant (Ki) were calculated using the Cheng–Prusoff equation: Ki = IC50/(1 + [S]/Km).

[1] = tested on: phosphorylation of Ser112 in BAD (marker of PIM-1 activity), MCF-7; experiment: Western blot/densitometry, intracellular PIM-1 inhibition, MCF-7; format: cell-based, human; settings: MCF-7, 10 µM, 48 h, densitometry
Protocol: (§1) All the procedures are described in detail in Supplementary Materials (Section S3.3). The protein concentration was determined using a Bradford assay.
(§2) For densitometry, immunoblots were scanned using G Box Chemi (Syngene, Cambridge, UK), and the density of each lane of phosphorylated and total protein was quantified using GeneSys software (Syngene, Cambridge, UK). Phosphorylated protein densities were normalized to GAPDH densities, assuming 1 for untreated cells; then, they were converted to a percentage of the appropriate control.
(§3) The data obtained for p65 confirmed the intracellular inhibition of CK2 by the tested compounds in all the studied cell lines in a dose-dependent manner. […] Otherwise, Western blot data for BAD (a marker of PIM-1 activity) indicated inhibition of PIM-1 only in MCF-7 cells, with the most significant reduction in phosphorylated BAD in cells treated with 10 µM conc. of rac-6 (0.49 of control) (Figure 8b). Unexpectedly, the relative level of BAD-P in the drug-treated CCRF-CEM and K-562 cells was even higher than in control cells.
(§4) The following primary antibodies were used: anti-GAPDH (Millipore, St. Louis, MO, USA; […]
(§5) overnight, +4°C); anti-BAD (Apoptosis I Sampler Kit, # 612741, BD Biosciences, San Diego, CA, USA; 1:1000, overnight, +4°C), anti-phospho-BAD-Ser112 (CST, Beverly, MA, USA; 9291S, 1:500 overnight, +4°C). […]

CCRF-CEM cells = experiment: Mitochondrial membrane potential (ΔΨm) assay, JC-1, flow cytometry; format: cell-based, human; settings: 10 µM, 48 h
Protocol: Mitochondrial membrane potential was assessed by flow cytometry using 5,5′,6,6′-tetrachloro-1,1′,3,3′-tetraethylbenzimidazolocarbocyanine iodide (JC-1; Sigma-Aldrich, St. Louis, MO, USA). JC-1 undergoes potential-dependent accumulation in mitochondria. In healthy cells, the dye accumulates in mitochondria, forming aggregates with red fluorescence (FL-2 channel), whereas in dead and apoptotic cells, the dye remains in the cytoplasm in a monomeric form and emits green fluorescence (FL-1 channel). Cells were harvested by centrifugation 48 h post treatment, suspended in 1 mL of complete culture medium at approximately 1 × 10^6 cells/mL, and incubated with 2.5 µL of JC-1 solution in DMSO (1 mg/mL) for 15 min at 37 °C in the dark. The stained cells were then washed with cold PBS, suspended in 400 µL of PBS, and examined by flow cytometry.
The most significant effect, i.e., 45% of cells with reduced ΔΨm, was obtained in cells treated with 10 µM conc. of rac-6.

[2] = tested on: phosphorylation of Ser112 in BAD (marker of PIM-1 activity), CCRF-CEM; experiment: Western blot/densitometry, intracellular PIM-1 inhibition, CCRF-CEM; format: cell-based, human; settings: 48 h
Protocol: as §1, §2, §3, §4, §5

T1 sequence (P68400 whole entry): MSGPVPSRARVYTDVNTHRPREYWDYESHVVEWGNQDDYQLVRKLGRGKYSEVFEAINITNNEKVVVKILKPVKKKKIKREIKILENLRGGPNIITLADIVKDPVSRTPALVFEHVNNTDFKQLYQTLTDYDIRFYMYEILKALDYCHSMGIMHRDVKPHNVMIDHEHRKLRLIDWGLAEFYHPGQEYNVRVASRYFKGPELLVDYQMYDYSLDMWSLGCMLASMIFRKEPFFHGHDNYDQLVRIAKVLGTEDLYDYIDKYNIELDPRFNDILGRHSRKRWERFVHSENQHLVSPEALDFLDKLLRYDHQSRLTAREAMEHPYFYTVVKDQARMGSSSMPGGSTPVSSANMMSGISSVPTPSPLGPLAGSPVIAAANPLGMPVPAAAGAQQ

In the case of `OC(CNc1nc2c(Br)c(Br)c(Br)c(Br)c2[nH]1)C(F)(F)F` (racemic) [rac-6, 1,1,1-Trifluoro-3-[(4,5,6,7-tetrabromo-1H-benzimidazol-2-yl)amino]propan-2-ol], the pKi (human CK2α) was 6.53, the “phosphorylated BAD, relative level” value [1] was 0.49 of control and the “cells with reduced ΔΨm” value (CCRF-CEM cells) was 45%. The “level of phosphorylated BAD (in words)” value [2] was “increased level of phosphorylated BAD”.
